Assay results taken from US20180161427A1, “COMBINATION OF AN ANTI-IL-10 ANTIBODY AND A CPG-C TYPE OLIGONUCLEOTIDE FOR TREATING CANCER” (MERCK SHARP & DOHME CORP., priority 2015, published 2018).
Strand notation (5' to 3'): a small letter for the sugar, then the base; units joined by * are phosphorothioate-linked, units joined directly phosphodiester-linked; [ ] holds rarer units or linkages, { } end groups; capitals alone tell only the bases. d = 2'-deoxy (DNA)

Columns and labels:
[1] = system: Human peripheral blood mononuclear cells (PBMCs); assay: Induction of IFNα2a and IL-10 in human PBMCs (48 hours, Meso Scale Discovery kits); assay type: cell-based
Protocol: Human peripheral blood mononuclear cells (PBMCs) were isolated from buffy coats from two donors with Ficoll-Paque™ PLUS (GE Healthcare Bio-Sciences, Pittsburgh, Pa.) using standard Ficoll separation methods. Isolated PBMCs were washed twice in phosphate buffered saline (PBS) containing 2% fetal bovine serum (FBS), and 2 mM ethylenediaminetetraacetic acid (EDTA). The cells were resuspended and cultured in 96-well U-bottom plates at 1×10^6 cells per well in RPMI 1640 containing 10% FBS, 2 mM L-glutamine, 100 U/mL pencillin and 100 μg/mL streptomycin. The cells were cultured in the presence of C59-08 at doses ranging from 0.016 μM to 5 μM or 7 μM control ODN 1040 in a humidifed incubator at 37° C., 5% CO2 in final volume of 0.2 mL for 48 hours. Supernatants were harvested and assayed for IFNα2a and IL-10 using Meso Scale Discovery human IFNα2a and human IL-10 tissue culture kits (Rockville, Md.).

[2] = system: human tumor histocultures (renal cell carcinoma, NSCLC, bladder and colorectal cancer); assay: Ex vivo treatment of human tumor histocultures, mRNA expression by real-time quantitative PCR; assay type: cell-based; settings: 0.1, 0.5, and 1 μM, 24 hours; RCC (n=5), NSCLC (n=3), bladder (n=1), colorectal (n=1) histocultures
Protocol: Human tumor specimens from patients were obtained from commercial sources (Bio-Options, Folio, Coversant Bio, and Boston BioSource) and University of Rochester.
Fresh tumor tissues were collected within 1 hour following surgery and placed into AQIX transportation media (AQIX, UK). Tissues were transported overnight at 4° C. to Merck Research Laboratories, Palo Alto, Calif.
The tumors were embedded in UltraPure™ low melting point agarose (Invitrogen, Carlsbad, Calif.) and were cut 400 μm with Mcllwain™ Tissue Chopper (Stoelting Co., Wood Dale, Ill.). The tumor slices were first set on the Millicell-CM cell culture insert (Millipore, Billerica, Calif.) and cultured at the interface between air and medium of 1 ml DMEM supplemented with 4.5 g/L glucose, L-glutamine, sodium pyruvate (Mediatech, Inc., Manassas, Va.), 10% FBS (SAFC Biosciences, Lenexa, Kans.), 100 U/ml penicillin, and 100 ug/ml streptomycin in humidifed incubator at 37° C., 5% CO2.
The tumor slices were cultured in the presence of 0.1, 0.5, and 1 μM C59-08 or 1 μM control ODN 1040 for 24 hours. The tumor samples were snap frozen in dry ice and stored at […] prior to processing.
Total RNA was isolated by homogenization into RNA STAT-60 (Tel-Test, Friendswood, Tex.) using a polytron homogenizer. The total RNA was extracted according to the manufacturer's protocol. After precipitation with isopropanol, total RNA was re-extracted with phenol:chloroform:isoamyl alcohol (25:24:1) (Sigma-Aldrich, St. Louis, Mo.) using phase-lock light tubes.
DNase-treated total RNA was reverse-transcribed using QuantiTect Reverse Transcription (Qiagen, Valencia, Calif.) according to manufacturer's protocol. […] Real-time quantitative PCR on 10 ng of cDNA from each sample was performed using unlabeled primers at 900 nM each with 250 nM of FAM-labeled probe in a TAQMAN™ RTqPCR reaction on the Fluidigm Biomark sequence detection system (Fluidigm, Foster City, Calif.). Levels of ubiquitin were measured in a separate reaction and were used to normalize the data by the Δ-Δ Ct method. […]

[3] = system: TC-1 tumors; assay: Anti-tumor activity in mouse TC-1 bilateral tumor model; assay type: in vivo; settings: antibody 10 mg/kg IP
Source text: Approximately seven to eight week old female C57BL/6J mice were obtained from Jackson Laboratory (Sacramento, Calif.). Conventional animal chow and water were provided ad libitum. Animals were housed for one week prior to the start of the study. The average weight of the animals at the start of the study (i.e. tumor implantation) was 19 grams.
The TC-1 cell line, provided by Johns Hopkins University (Baltimore, Md.) is derived from mouse primary lung epithelial cells that were cotransformed with human papilloma virus (HPV-16) E6 and E7 and c-Ha.ras oncogene (Lin K Y et al. Cancer Res. 1996 Jan. 1, 56(1):21-6). TC-1 cells are syngeneic to C57BL6/J strain.
The TC-1 cells were cultured in DMEM supplemented with 10% fetal bovine serum and 0.4 mg/mL Geneticin. Sub-confluent TC-1 cells were injected subcutaneously (SC) in 0.1 mL of serum-free DMEM in both lower dorsal flanks (1×10^5 in right flank and 0.5×10^5 in left flank) of each animal. Animals were first shaved with electronic clippers in the areas that were used for the implantation.
Tumors were measured the day before the first dose and twice a week thereafter. Tumor length and width were measured using electronic calipers and tumor volume determined using the formula Volume (mm^3)=0.5×Length×[…] where length is the longer dimension. Animals were weighed the day before the first dose and twice a week thereafter. […]

[4] = 2 donors, 0.016 μM to 5 μM, supernatant

5′-TCGAACGTTCGAACGTTCGAACGTTCGAAT-3′ (DNA dT*dC*dG*dA*dA*dC*dG*dT*dT*dC*dG*dA*dA*dC*dG*dT*dT*dC*dG*dA*dA*dC*dG*dT*dT*dC*dG*dA*dA*dT) [Compound C59-08, oligodeoxynucleotide with a phosphorothioate backbone and 5′OH and 3′OH; CpG class C type TLR9 agonist]
optimal concentration for IFNα2a and IL-10 production [1]: 0.2 µM | IFNα2a production [1, 4]: induces | IL-10 production [1, 4]: induces | mRNA expression of IFNα-inducible genes (IFNα2, MCP1, MCP2, OAS2, IP-10, GBP1, ISG-54, MxB, and TRAIL) [2]: induced | mRNA expression of cytokines (IFNβ, IL-10, IL-12, IL-6, and TNFα) [2]: induced | mRNA expression of immune activation markers (CD80, CD86, CD40, CD70 and OX40L) [2]: induced | Complete regressions (CRs) of non-injected tumors ([3]; left flank tumor, ODN IT only in right tumors on Days 0, 4, 8, 12): did not result in CRs | Complete regressions (CRs) of injected tumors ([3]; right flank tumor, ODN IT (C59-08 2.5 mg/kg, CpG 1826 1 mg/kg) on Days 0, 4, 8, 12): did not result in CRs
